{"source": "paper PMC1874184", "about": "(Environmental Health Perspectives, 2005)", "key": {"Acartia tonsa": {"system": "Acartia tonsa", "details": "ref Andersen et al. (1999); cited from earlier work"}, "[1]": {"details": "cited from earlier work"}, "Marisa cornuarietis [2]": {"system": "Marisa cornuarietis", "details": "ref Oehlmann et al. 2000; cited from earlier work"}, "[3]": {"system": "Japanese medaka (Oryzias latipes)", "details": "ref Metcalfe et al. 2001; cited from earlier work"}, "[4]": {"details": "ref Heemken et al. 2001; Staples et al. 1998; cited from earlier work"}, "[5]": {"target": "ER-like binding site (specific [3H]-E2 binding)", "assay": "Competitive displacement of specific [3H]-E2 binding in gonad cytosolic extracts", "details": "for IC50: read-out: IC50, displacement of specific [3H]-E2 binding, 24 nM [3H]-E2, 18 hr incubation, n = 3; for Displacement activity / affinity for ER-like binding site (in words): 24 nM [3H]-E2"}, "Marisa cornuarietis [6]": {"system": "Marisa cornuarietis", "assay": "Exposure series I: 6-month semistatic exposure of sexually mature snails at 22°C", "assay_type": "in vivo"}, "[7]": {"system": "aquatic organisms (vertebrates and invertebrates)", "details": "ref Hirano et al. 2004, Ike et al. 2002; cited from earlier work"}, "Potamopyrgus antipodarum": {"system": "Potamopyrgus antipodarum", "details": "exposure via sediments; ref Duft et al. (2003); cited from earlier work"}, "Marisa cornuarietis [8]": {"system": "Marisa cornuarietis", "assay_type": "in vivo", "details": "for EC10 (95% confidence intervals), clutch production / EC10 (95% confidence intervals), egg production / NOEC, clutch production / NOEC, egg production: entire duration; for Oviduct malformations under co-exposure with BPA: 5 μg BPA/L plus 3 μg ICI 182,780/L or 10 μg tamoxifen/L"}, "vertebrate ER": {"system": "vertebrate ER", "details": "ref Bolger et al. 1998; cited from earlier work"}, "[9]": {"system": "freshwater sponges (Heteromyenia sp.)", "details": "ref Hill et al. (2002); cited from earlier work"}, "[10]": {"system": "swordtails (Xiphophorus helleri)", "details": "male fish; ref Kwak et al. 2001; cited from earlier work"}, "Caenorhabditis elegans": {"system": "Caenorhabditis elegans", "details": "ref Tominaga et al. (2003); cited from earlier work"}, "C. riparius": {"system": "C. riparius", "details": "freshly emerged midges, 1 to 3,000 μg/L; ref Hahn et al. (2002); cited from earlier work"}, "[11]": {"details": "prespawning period (days 0–65), 22°C, based on measured BPA concentrations"}, "[12]": {"details": "prespawning period, 22°C, measured concentrations"}, "[13]": {"details": "20°C, measured BPA concentrations"}, "[14]": {"details": "27°C, measured BPA concentrations"}}, "note": "“Also recorded” adds a separate entry of the source. Read-outs that look alike come from different tables or passages of the source.", "data": [{"smiles": "CC(C)(c1ccc(O)cc1)c1ccc(O)cc1", "note": "[BPA, 4,4′-isopropylidine diphenol]", "values": [{"measurement": "Concentration with increase of egg production", "setting": "Acartia tonsa", "result": 20, "unit": "μg BPA/L"}, {"measurement": "half-life (degradation)", "setting": "[1]; in sewage treatment plants, ref Howard 1989", "result": 28, "unit": "days"}, {"measurement": "half-life (degradation)", "setting": "[1]; in water, ref Dorn et al. 1987", "result": "2.5 to 4", "unit": "days"}, {"measurement": "Concentration inducing superfeminization syndrome (as low as)", "setting": "Marisa cornuarietis [2]", "result": 0.001, "unit": "µg/mL"}, {"measurement": "Concentration inducing ovotestes (as low as)", "setting": "[3]", "result": 0.01, "unit": "µg/mL"}, {"measurement": "log KOW", "setting": "[4]", "result": "2.20–3.82"}, {"measurement": "IC50", "setting": "[5]", "result": 24.8, "unit": "µM"}, {"measurement": "Cumulative clutch and egg production compared with SC", "setting": "Marisa cornuarietis [6]; entire experiment, nominal BPA 0.1, 0.5 and 1 μg/L, PC 0.01 μg/L EE2, p < 0.05", "result": "significantly more"}, {"measurement": "Incidence of superfemales with oviduct malformations", "setting": "Marisa cornuarietis [6]; nominal 0.05 μg/L BPA, 22°C", "result": 1.2, "unit": "%"}, {"measurement": "Incidence of superfemales with oviduct malformations", "setting": "Marisa cornuarietis [6]; nominal 0.1 μg/L BPA, 22°C", "result": 0, "unit": "%"}, {"measurement": "Incidence of superfemales with oviduct malformations", "setting": "Marisa cornuarietis [6]; nominal 0.25 μg/L BPA, 22°C", "result": 2.0, "unit": "%"}, {"measurement": "Incidence of superfemales with oviduct malformations", "setting": "Marisa cornuarietis [6]; nominal 0.5 μg/L BPA, 22°C", "result": 3.1, "unit": "%"}, {"measurement": "Incidence of superfemales with oviduct malformations", "setting": "Marisa cornuarietis [6]; nominal 1 μg/L BPA, 22°C", "result": 3.2, "unit": "%"}, {"measurement": "EC10 (95% confidence intervals), clutch production", "setting": "Marisa cornuarietis [6]; [11]", "result": "14.6 (13.8–15.4) ng/L"}, {"measurement": "EC10 (95% confidence intervals), egg production", "setting": "Marisa cornuarietis [6]; [11]", "result": "13.9 (12.8–15.0) ng/L"}, {"measurement": "LOEC, clutch production", "setting": "Marisa cornuarietis [6]; [12]", "result": 48.3, "unit": "ng/L"}, {"measurement": "LOEC, egg production", "setting": "Marisa cornuarietis [6]; [12]", "result": 48.3, "unit": "ng/L"}, {"measurement": "NOEC, clutch production", "setting": "Marisa cornuarietis [6]; [12]", "result": 7.9, "unit": "ng/L"}, {"measurement": "NOEC, egg production", "setting": "Marisa cornuarietis [6]; [12]", "result": 7.9, "unit": "ng/L"}, {"measurement": "Imposex development", "setting": "Marisa cornuarietis [6]; sexually mature snails, 22°C, ANOVA and Weir test p > 0.2", "result": "did not induce imposex development"}, {"measurement": "96-hr LC50 (median lethal concentration)", "setting": "[7]", "result": "1000 to 20000", "unit": "ng/mL"}, {"measurement": "EC10, increase of embryo numbers in the brood pouch (superfemale response)", "setting": "Potamopyrgus antipodarum", "result": 0.22, "unit": "μg BPA/kg"}, {"measurement": "Imposex development", "setting": "Marisa cornuarietis [8]; 20°C and 27°C, ANOVA and Weir test p > 0.5", "result": "did not induce imposex development"}, {"measurement": "Size of genital organs (penis pouch, penis sheath, penis) in males", "setting": "Marisa cornuarietis [8]; 20°C or 27°C, with the exception of penis length at 20°C", "result": "did not affect"}, {"measurement": "EC10 (95% confidence intervals), clutch production", "setting": "Marisa cornuarietis [8]; [13]", "result": "18.0 (6.20–52.4) ng/L"}, {"measurement": "EC10 (95% confidence intervals), egg production", "setting": "Marisa cornuarietis [8]; [13]", "result": "14.8 (6.07–36.2) ng/L"}, {"measurement": "NOEC, clutch production", "setting": "Marisa cornuarietis [8]; 20°C, measured concentrations", "result": "< 106", "unit": "ng/L"}, {"measurement": "NOEC, egg production", "setting": "Marisa cornuarietis [8]; 20°C, measured concentrations", "result": "< 106", "unit": "ng/L"}, {"measurement": "LOEC, clutch production", "setting": "Marisa cornuarietis [8]; 20°C, measured concentrations", "result": 106, "unit": "ng/L"}, {"measurement": "LOEC, egg production", "setting": "Marisa cornuarietis [8]; 20°C, measured concentrations", "result": 106, "unit": "ng/L"}, {"measurement": "Incidence of superfemales with oviduct malformations", "setting": "Marisa cornuarietis [8]; 20°C, nominal 0.25 μg/L BPA", "result": 4.8}, {"measurement": "Incidence of superfemales with oviduct malformations", "setting": "Marisa cornuarietis [8]; 20°C, nominal 0.5 μg/L BPA", "result": 8.0}, {"measurement": "Incidence of superfemales with oviduct malformations", "setting": "Marisa cornuarietis [8]; 20°C, nominal 1 μg/L BPA", "result": 14.8}, {"measurement": "Incidence of superfemales with oviduct malformations", "setting": "Marisa cornuarietis [8]; 20°C, nominal 5 μg/L BPA", "result": 11.5}, {"measurement": "Mortality compared to SC", "setting": "Marisa cornuarietis [8]; 20°C, 0.25, 0.5, 1 and 5 μg BPA/L, χ2 test", "result": "increased significantly"}, {"measurement": "Clutch and egg production compared with SC", "setting": "Marisa cornuarietis [8]; 20°C, cumulative p < 0.01, per female p < 0.001", "result": "significantly more"}, {"measurement": "Penis length in males", "setting": "Marisa cornuarietis [8]; 20°C, p < 0.01", "result": "significant decrease; also recorded: concentration-dependent reduction"}, {"measurement": "EC10 (95% confidence intervals), clutch production", "setting": "Marisa cornuarietis [8]; [14]", "result": "2090 (796–5,460) ng/L"}, {"measurement": "EC10 (95% confidence intervals), egg production", "setting": "Marisa cornuarietis [8]; [14]", "result": "998 (161–6,200) ng/L"}, {"measurement": "NOEC, clutch production", "setting": "Marisa cornuarietis [8]; 27°C, measured concentrations", "result": "≥ 1990", "unit": "ng/L"}, {"measurement": "NOEC, egg production", "setting": "Marisa cornuarietis [8]; 27°C, measured concentrations", "result": 205, "unit": "ng/L"}, {"measurement": "Clutch production compared with control", "setting": "Marisa cornuarietis [8]; 27°C, groups exposed solely to BPA", "result": "none of the groups exposed solely to BPA produced significantly more clutches"}, {"measurement": "EC10, clutch production", "setting": "Marisa cornuarietis [8]; [14]", "result": 2.09, "unit": "ng/mL"}, {"measurement": "EC10, egg production", "setting": "Marisa cornuarietis [8]; [14]", "result": 0.998, "unit": "ng/mL"}, {"measurement": "LOEC, egg production", "setting": "Marisa cornuarietis [8]; 27°C, measured concentrations", "result": 436, "unit": "ng/L"}, {"measurement": "Cumulative egg production compared with SC", "setting": "Marisa cornuarietis [8]; 27°C, only at nominal 1 and 5 μg/L, p < 0.05", "result": "significant increase"}, {"measurement": "Affinity to the vertebrate ER (in words)", "setting": "vertebrate ER", "result": "weak affinity"}, {"measurement": "Concentration completely inhibiting germination", "setting": "[9]", "result": 80, "unit": "µg/mL"}, {"measurement": "Concentration range with significant reductions in growth rates", "setting": "[9]", "result": "0.16 to 160", "unit": "µg/mL"}, {"measurement": "Concentration range inhibiting development of the sword", "setting": "[10]", "result": "0.0002 to 0.02", "unit": "µg/mL"}, {"measurement": "LC50", "setting": "Caenorhabditis elegans", "result": "> 100", "unit": "µM"}, {"measurement": "Reduction of yolk protein contents", "setting": "C. riparius", "result": "20–25%"}]}, {"smiles": "C[C@]12CC[C@@H]3c4ccc(O)cc4CC[C@H]3[C@@H]1CC[C@@H]2O", "note": "[E2]", "values": [{"measurement": "IC50", "setting": "[5]", "result": 0.753, "unit": "µM"}]}, {"smiles": "C[C@]12CC[C@@H]3c4ccc(O)cc4C[C@@H](CCCCCCCCC[S+]([O-])CCCC(F)(F)C(F)(F)F)[C@H]3[C@@H]1CC[C@@H]2O", "note": "(stereo partly shown) [ICI, ICI 182,780, reference compound]", "values": [{"measurement": "Imposex intensities compared to SC under co-exposure with BPA", "setting": "Marisa cornuarietis [8]; 5 μg BPA/L plus 3 μg ICI 182,780/L, both temperatures, Weir test p < 0.05", "result": "imposex intensities increased"}, {"measurement": "Oviduct malformations under co-exposure with BPA", "setting": "Marisa cornuarietis [8]; 20°C", "result": "No oviduct malformations"}]}, {"smiles": "C[C@]12CC[C@H]3[C@@H](CCC4=CC(=O)CC[C@@]43C)[C@@H]1CC[C@@H]2O", "note": "[T, testosterone]", "values": [{"measurement": "Displacement activity / affinity for ER-like binding site (in words)", "setting": "[5]", "result": "only weak displacement activity"}]}, {"smiles": "CC/C(=C(\\c1ccccc1)c1ccc(OCCN(C)C)cc1)c1ccccc1", "note": "[Tam, tamoxifen, reference compound]", "values": [{"measurement": "Displacement activity / affinity for ER-like binding site (in words)", "setting": "[5]", "result": "moderate affinity"}, {"measurement": "Oviduct malformations under co-exposure with BPA", "setting": "Marisa cornuarietis [8]; 20°C", "result": "No oviduct malformations"}]}]}
